Laboratory results reported in patent EP4722201A1, “3-PHENYLISOXAZOLINE-5-CARBOXAMIDE COMPOUND, AND PREPARATION METHOD THEREFOR, HERBICIDAL COMPOSITION THEREOF AND USE THEREOF” (Jiangsu Flag Chemical Industry Co., Ltd, priority 2023, dated 2024).

Legend:
Assay in all cases: Indoor herbicide activity determination, Seed Treatment; pre-emergence (soil spray)
Type in all cases: in vivo
Alopecurus japonicus = settings: Dosage 240 g a.i./ha
In short: (§1)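 Readout is percent inhibition of fresh weight relative to control plants, determined 21 days after treatment. Soil was sprayed one day after sowing, in a spray tower at 300 mm height and 390 mL/min nozzle flow, onto sandy soil of pH 6.1 with 1% organic matter.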

Cyperus iria = settings: 120 g a.i./ha, read-out: Herbicidal activities (inhibition rate) Cyperus iria
In short: as §1

Aegilops tauschii = settings: 120 g a.i./ha, read-out: Herbicidal activities (inhibition rate) Aegilops tauschii
In short: as §1

Leptochloa chinensis = settings: Dosage 240 g a.i./ha
In short: as §1

Eclipta prostrata = settings: 120 g a.i./ha, read-out: Herbicidal activities (inhibition rate) Eclipta prostrata
In short: as §1

Alopecurus myosuroides = settings: Dosage 240 g a.i./ha
In short: as §1

Digitaria sanguinalis = settings: 120 g a.i./ha, read-out: Herbicidal activities (inhibition rate) Digitaria sanguinalis
In short: as §1

Lolium multiflorum = settings: Dosage 240 g a.i./ha
In short: as §1

| SMILES | Herbicidal activities, Alopecurus japonicus (inhibition rate class) (Alopecurus japonicus) | inhibition at 120 g/ha (Cyperus iria) [%] | inhibition at 120 g/ha (Aegilops tauschii) [%] | Herbicidal activities, Leptochloa chinensis (inhibition rate class) (Leptochloa chinensis) | inhibition at 120 g/ha (Eclipta prostrata) [%] | Herbicidal activities, Alopecurus myosuroides (inhibition rate class) (Alopecurus myosuroides) | inhibition at 120 g/ha (Digitaria sanguinalis) [%] | Herbicidal activities, Lolium multiflorum (inhibition rate class) (Lolium multiflorum) |
| --- | --- | --- | --- | --- | --- | --- | --- | --- |
| COC(=O)[C@H]1C[C@@H](NC(=O)C2(C)CC(c3cc(F)cc(C(F)(F)F)c3)=NO2)CO1 (mixture of isomers) [I-377] | A (A indicates that the inhibition rate was greater than or equal to 80% to 100%) | 60 to 80 | 80 to 100 | A (A indicates that the inhibition rate was greater than or equal to 80% to 100%) | 40 to 60 | A (A indicates that the inhibition rate was greater than or equal to 80% to 100%) | 80 to 100 | A (A indicates that the inhibition rate was greater than or equal to 80% to 100%) |
| CC1(C(=O)N[C@H]2CO[C@@H](C(=O)O)C2)CC(c2cc(F)cc(OC(F)(F)F)c2)=NO1 (mixture of isomers) [I-378] | A (A indicates that the inhibition rate was greater than or equal to 80% to 100%) | 60 to 80 | 80 to 100 | A (A indicates that the inhibition rate was greater than or equal to 80% to 100%) | 40 to 60 | A (A indicates that the inhibition rate was greater than or equal to 80% to 100%) | 80 to 100 | A (A indicates that the inhibition rate was greater than or equal to 80% to 100%) |
| COC(=O)C1CC(NC(=O)C2(C)CC(c3cc(Cl)cc(C(F)(F)F)c3)=NO2)CO1 (stereo not drawn) [I-386] | A (A indicates that the inhibition rate was greater than or equal to 80% to 100%) | 60 to 80 | 80 to 100 | A (A indicates that the inhibition rate was greater than or equal to 80% to 100%) | 40 to 60 | A (A indicates that the inhibition rate was greater than or equal to 80% to 100%) | 80 to 100 | A (A indicates that the inhibition rate was greater than or equal to 80% to 100%) |
| COC(=O)C1CC(NC(=O)C2(C)CC(c3cc(Cl)cc(OC(F)(F)F)c3)=NO2)CO1 (stereo not drawn) [I-387] | A (A indicates that the inhibition rate was greater than or equal to 80% to 100%) | 60 to 80 | 80 to 100 | A (A indicates that the inhibition rate was greater than or equal to 80% to 100%) | 60 to 80 | A (A indicates that the inhibition rate was greater than or equal to 80% to 100%) | 80 to 100 | A (A indicates that the inhibition rate was greater than or equal to 80% to 100%) |
| CC1(C(=O)NC2COC(C(=O)O)C2)CC(c2cc(Cl)cc(OC(F)F)c2)=NO1 (stereo not drawn) [I-388] | A (A indicates that the inhibition rate was greater than or equal to 80% to 100%) | 60 to 80 | 80 to 100 | A (A indicates that the inhibition rate was greater than or equal to 80% to 100%) | 60 to 80 | A (A indicates that the inhibition rate was greater than or equal to 80% to 100%) | 60 to 80 | B (B indicates that the inhibition rate was greater than or equal to 60% to less than 80%) |
| COC(=O)C1CC(NC(=O)C2(C)CC(c3cc(Cl)cc(OC(F)F)c3)=NO2)CO1 (stereo not drawn) [I-390] | A (A indicates that the inhibition rate was greater than or equal to 80% to 100%) | 60 to 80 | 80 to 100 | A (A indicates that the inhibition rate was greater than or equal to 80% to 100%) | 60 to 80 | A (A indicates that the inhibition rate was greater than or equal to 80% to 100%) | 60 to 80 | B (B indicates that the inhibition rate was greater than or equal to 60% to less than 80%) |
| COC(=O)C1CC(NC(=O)C2(C(F)(F)F)CC(c3cc(F)cc(C(F)(F)F)c3)=NO2)CO1 (stereo not drawn) [I-392] | A (A indicates that the inhibition rate was greater than or equal to 80% to 100%) | 60 to 80 | 80 to 100 | A (A indicates that the inhibition rate was greater than or equal to 80% to 100%) | 60 to 80 | A (A indicates that the inhibition rate was greater than or equal to 80% to 100%) | 80 to 100 | A (A indicates that the inhibition rate was greater than or equal to 80% to 100%) |
| COC(=O)C1CC(NC(=O)C2(C(F)(F)F)CC(c3cc(F)cc(OC(F)(F)F)c3)=NO2)CO1 (stereo not drawn) [I-393] | A (A indicates that the inhibition rate was greater than or equal to 80% to 100%) | 60 to 80 | 80 to 100 | A (A indicates that the inhibition rate was greater than or equal to 80% to 100%) | 60 to 80 | A (A indicates that the inhibition rate was greater than or equal to 80% to 100%) | 60 to 80 | A (A indicates that the inhibition rate was greater than or equal to 80% to 100%) |
| COC(=O)C1CC(NC(=O)C2(C(F)(F)F)CC(c3cc(F)cc(OC(F)F)c3)=NO2)CO1 (stereo not drawn) [I-394] | A (A indicates that the inhibition rate was greater than or equal to 80% to 100%) | – | 80 to 100 | A (A indicates that the inhibition rate was greater than or equal to 80% to 100%) | 60 to 80 | A (A indicates that the inhibition rate was greater than or equal to 80% to 100%) | 60 to 80 | A (A indicates that the inhibition rate was greater than or equal to 80% to 100%) |
| O=C(O)C1CC(NC(=O)C2(C(F)(F)F)CC(c3cc(Cl)cc(OC(F)F)c3)=NO2)CO1 (stereo not drawn) [I-395] | – | 60 to 80 | 60 to 80 | A (A indicates that the inhibition rate was greater than or equal to 80% to 100%) | 60 to 80 | A (A indicates that the inhibition rate was greater than or equal to 80% to 100%) | 60 to 80 | A (A indicates that the inhibition rate was greater than or equal to 80% to 100%) |
| COC(=O)C1CC(NC(=O)C2(C(F)(F)F)CC(c3cc(Cl)cc(OC(F)(F)F)c3)=NO2)CO1 (stereo not drawn) [I-400] | – | 60 to 80 | 80 to 100 | A (A indicates that the inhibition rate was greater than or equal to 80% to 100%) | 80 to 100 | A (A indicates that the inhibition rate was greater than or equal to 80% to 100%) | 80 to 100 | – |
